Our source for the inhibition rate and inhibition values is JP2005330229A, “4−トリフルオロメトキシフェニル(オキシ)エチルアミン誘導体及び抗菌剤” (Ube Industries Ltd, priority 2004, dated 2005).

For the test, the system named is black mold Aspergillus niger (クロカビ). The test can be described thus: Antimicrobial test, black mold (PDA plate, colony diameter). It is filed as cell-based. To be noted: PDA medium, final concentration 500 mg/L, 25℃, 4 days; for inhibition at 500 µg/mL: 96 h, read-out: inhibition rate.

For the compound “2−エトキシ−N−(2−(4−トリフルオロメトキシフェノキシ)エチル)ニコチン酸アミド [化合物番号12]”, the inhibition rate entry was “B (B:70〜89%阻害)”.
In general, inhibition refers to the change of the read-out against control, counted positive when it falls. Regarding `CS(=O)(=O)c1ncccc1C(=O)NCCOc1ccc(OC(F)(F)F)cc1` [化合物番号4, 2−メチルスルホニル−N−(2−(4−トリフルオロメトキシフェノキシ)エチル)ニコチン酸アミド], the inhibition at 500 µg/mL is 70 to 89%.
Same read-out and setting: the figure for `C[S+]([O-])c1ncccc1C(=O)NCCOc1ccc(OC(F)(F)F)cc1` (centres unmarked) [化合物番号5, 2−メチルスルフィニル−N−(2−(4−トリフルオロメトキシフェノキシ)エチル)ニコチン酸アミド] is 50 to 69%; for `O=C(NCCc1ccc(OC(F)(F)F)cc1)c1ccncc1` [化合物番号33, N−(2−(4−トリフルオロメトキシフェニル)エチル)イソニコチン酸アミド] it is 70 to 89%.
For “N−(2−(4−トリフルオロメトキシフェノキシ)エチル)−9−トリフルオロメチル−ジピリド[2,3−b:3’,2’−f]1,4−チアゼピン−6(5H)−オン [化合物番号41]”, the inhibition rate entry is “C (C:50〜69%阻害)”.
